These are literature values, as cited in patent publication US20250215008A1, “PREPARATION AND USE OF QUINAZOLINONE DERIVATIVE AS KINASE INHIBITOR” (Haisco Pharmaceutical Group Co., Ltd., priority 2022, published 2025).

One data set has as its target MDR1 (Homo sapiens (Human), UniProt P08183). The settings on record: cited from earlier work.
The target of the next data set is BCRP (Homo sapiens (Human), UniProt Q9UNQ0). To be noted: cited from earlier work.
For data set [1] the following is noted: in vivo; cited from earlier work.

SMILES strings stand for the structures.

MDR1, sequence (P08183 whole entry, species assumed): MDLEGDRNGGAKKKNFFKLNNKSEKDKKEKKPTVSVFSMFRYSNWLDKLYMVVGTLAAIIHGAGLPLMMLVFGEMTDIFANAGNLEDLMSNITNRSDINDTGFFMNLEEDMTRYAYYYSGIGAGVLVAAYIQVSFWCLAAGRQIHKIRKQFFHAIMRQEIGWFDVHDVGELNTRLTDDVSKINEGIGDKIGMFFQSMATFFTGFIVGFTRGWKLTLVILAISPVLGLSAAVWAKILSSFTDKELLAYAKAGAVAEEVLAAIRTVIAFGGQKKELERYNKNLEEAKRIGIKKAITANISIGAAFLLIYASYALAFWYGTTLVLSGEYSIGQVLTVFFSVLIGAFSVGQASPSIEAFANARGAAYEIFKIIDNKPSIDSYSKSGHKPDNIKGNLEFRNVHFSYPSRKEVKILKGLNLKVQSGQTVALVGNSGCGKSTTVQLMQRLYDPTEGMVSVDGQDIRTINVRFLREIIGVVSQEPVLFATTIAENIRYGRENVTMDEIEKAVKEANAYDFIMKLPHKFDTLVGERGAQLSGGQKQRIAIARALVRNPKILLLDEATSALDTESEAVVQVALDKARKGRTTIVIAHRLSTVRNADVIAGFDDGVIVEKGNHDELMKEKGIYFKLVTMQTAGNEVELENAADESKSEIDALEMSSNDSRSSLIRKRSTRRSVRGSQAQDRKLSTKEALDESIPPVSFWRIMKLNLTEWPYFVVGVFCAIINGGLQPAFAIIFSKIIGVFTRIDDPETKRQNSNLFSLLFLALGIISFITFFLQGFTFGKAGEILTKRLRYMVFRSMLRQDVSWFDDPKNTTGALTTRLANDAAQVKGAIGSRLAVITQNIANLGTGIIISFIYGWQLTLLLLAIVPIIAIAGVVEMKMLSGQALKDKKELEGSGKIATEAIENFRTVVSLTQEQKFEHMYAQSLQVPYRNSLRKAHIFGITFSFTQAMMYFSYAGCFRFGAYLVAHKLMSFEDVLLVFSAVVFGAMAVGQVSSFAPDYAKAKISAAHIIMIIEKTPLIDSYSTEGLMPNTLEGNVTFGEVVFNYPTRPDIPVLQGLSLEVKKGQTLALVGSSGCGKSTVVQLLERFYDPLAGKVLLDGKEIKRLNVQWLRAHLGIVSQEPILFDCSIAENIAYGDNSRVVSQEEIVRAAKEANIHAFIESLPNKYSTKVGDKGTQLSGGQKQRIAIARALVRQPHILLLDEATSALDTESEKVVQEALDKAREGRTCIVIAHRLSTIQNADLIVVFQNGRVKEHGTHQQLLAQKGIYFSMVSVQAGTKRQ
BCRP, sequence (Q9UNQ0 whole entry, species assumed): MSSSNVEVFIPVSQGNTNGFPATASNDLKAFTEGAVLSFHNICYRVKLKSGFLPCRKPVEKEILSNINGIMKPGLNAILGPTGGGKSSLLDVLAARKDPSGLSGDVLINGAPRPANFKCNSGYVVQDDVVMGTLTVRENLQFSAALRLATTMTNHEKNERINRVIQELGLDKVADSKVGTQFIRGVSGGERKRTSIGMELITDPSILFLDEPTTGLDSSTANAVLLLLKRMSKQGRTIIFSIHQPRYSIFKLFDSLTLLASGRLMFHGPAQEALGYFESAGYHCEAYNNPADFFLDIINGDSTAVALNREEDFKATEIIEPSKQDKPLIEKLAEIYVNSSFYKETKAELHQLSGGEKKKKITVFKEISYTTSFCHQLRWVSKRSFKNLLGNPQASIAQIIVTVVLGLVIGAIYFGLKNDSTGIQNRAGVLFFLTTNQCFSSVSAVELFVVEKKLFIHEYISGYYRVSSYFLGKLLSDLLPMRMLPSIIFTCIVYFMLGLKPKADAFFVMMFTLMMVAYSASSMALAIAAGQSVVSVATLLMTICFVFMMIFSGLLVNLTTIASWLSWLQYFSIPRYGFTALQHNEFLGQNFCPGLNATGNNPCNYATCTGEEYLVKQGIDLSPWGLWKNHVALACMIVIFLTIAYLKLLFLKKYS

Consider `CCCS(=O)(=O)Nc1ccc(F)c(C(=O)c2c[nH]c3ncc(-c4ccc(Cl)cc4)cc23)c1F` [Vemurafenib], for which the MDR1 efflux ratio on MDR1 was 83. For the same compound, the BCRP efflux ratio at BCRP is 495. In addition, the total brain-to-plasma ratio in data set [1] is 0.004.
